Test results published in patent publication US20100203132A1, “Pharmaceutical Compositions Comprising NEP-Inhibitors, Inhibitors of the Endogenous Endothelin Producing System and AT1 Receptor Antagonists” (Solvay Pharmaceuticals GmbH, priority 2004, published 2010).
Where a name gives a salt, the structure may show the parent alone.

Experiments:
[1] = system: human subjects with congestive heart failure; experiment: Single dose study of oral daglutril during 12-hour right heart catheterization, subgroup analysis by concomitant losartan potassium; assay type: in vivo; details: human CHF subjects, single oral dose of daglutril (200, 400 or 800 mg groups pooled), with or without concomitant losartan potassium; value is mean change (SE)
Experimental: A randomized, placebo-controlled, parallel group, multi-center, single dose study of oral daglutril (vide supra) during 12-hour right heart catheterization in human subjects with congestive heart failure (=CHF) was performed. Each subject received one dose of daglutril or placebo. The study consisted of three visits (or study days when in-subjects were included). Ambulatory subjects were in hospital for two nights and one day. […]
The primary efficacy parameter was the maximum decrease from baseline over 6 hours for SVR and was compared between treatment groups using analysis of covariance, with the baseline value as covariate and center and NYHA classification as factors. […] In addition, the existence of a dose-response relationship for daglutril was evaluated by investigating linear, quadratic and cubic contrasts. The secondary efficacy parameter was the maximum change from baseline for PCWP and was analyzed in the same way as the primary variable. The maximum decrease from baseline over 12 hours, the change from for each individual time point and the adjusted area under the curve (=AUC) over 6 and 12 hours were analyzed for SVR and PCWP, using similar statistical methodology as for the main parameter of interest. All other tertiary efficacy parameters were analyzed using the same statistical methodology as for the primary efficacy parameter. […]

[2] = system: spontaneously hypertensive rat; experiment: Telemetric monitoring of blood pressure and heart rate in spontaneously hypertensive rats, compounds given via the drinking water; assay type: in vivo; details: SHR; for DBP, change vs. baseline / HR, change vs. baseline / SBP, change vs. baseline: mean, n=5
Source text: Male spontaneously hypertensive rats (=SHR, insulin resistant strain from Charles River; aged 6 months) were equipped with telemetry transmitters for continuous monitoring of blood pressure and heart rate (as described below). After 3 days of monitoring under baseline (untreated) conditions, animals were divided into two groups receiving an AT1-receptor antagonist (eprosartan mesylate, hereinafter referred to as experiment I; or candesartan cilexetil, hereinafter referred to as experiment II) or an AT1-receptor antagonist plus daglutril in combination. In experiment II, a third group of rats was included, receiving only daglutril. Compounds were administered via the drinking water, and daily drug intake was measured by weighing the water bottles thrice weekly. Intended daily doses in experiment I were 60 mg/kg/day of eprosartan mesylate plus, in the combination group, 100 mg/kg/day of daglutril. In experiment II, intended daily doses were 1 mg/kg of candesartan cilexetil, and 100 mg/kg of daglutril in the daglutril only and the combination group. Telemetry transmitters for continuous monitoring of blood pressure, heart rate and locomotor activity (TA11PA-C40, Data Sciences, USA) were implanted intraabdominally under inhalative halothane anesthesia. A midline abdominal incision was made, and the abdominal aorta was visualized by removal of retroperitoneal fat and connective tissue. A ligature was placed caudal of the renal arteries, the aorta was punctured with a 22G needle, and the catheter was advanced into the aorta. The entry point was sealed with tissue adhesive (Vetbond®, 3M, USA), the ligature was removed, and the abdominal incision was closed. Measurements of aortic pressure were taken every 5 minutes (=min) for 4 seconds (=s) each at a sampling rate of 500 Hz, and were corrected for the corresponding ambient pressure (ambient pressure monitor, C11 PR, Data Sciences, USA).
Concentrations of AT1-receptor antagonists and daglutril in the drinking water were adjusted once per week, in order to ensure the intended daily intake. In experiment I, the average daily water intake throughout the 33 days treatment period amounted to 51 and 56 ml/kg in the eprosartan and eprosartan plus daglutril group, respectively, resulting in the uptake of 62 mg/kg/day of eprosartan in both groups, and 104 mg/kg/day of daglutril in the combination group. In experiment II, the average daily water intake during the 25 days treatment period was 64 ml/kg (candesartan only), 62 ml/kg (daglutril only) and 62 ml/kg (candesartan plus daglutril), resulting in daily doses of 0.9 mg/kg of candesartan in both, the candesartan and combination group, and 101 mg/kg and 98 mg/kg of daglutril in the daglutril and combination group, respectively.
The blood pressure, heart rate and activity values, sampled in 5 min intervals by the Dataquest system, were used for calculation of individual 24 hours (=h)-means. These 24 h means were exported to Excel, and group mean values of systolic blood pressure (=SBP), diastolic blood pressure (=DBP), heart rate (=HR), and locomotor activity (=ACT) were calculated for the different treatment groups. For the statistical analysis, a baseline value (pre) was calculated from 3 days prior to compound application, and effects of AT1-receptor antagonist, daglutril and their combination were calculated in relation to this baseline value (average value during the treatment period minus baseline value). The statistical comparison was done by using analysis of variance, followed by two-tailed Student's t-test for comparison of AT1 receptor antagonist and combination groups, both at an error level of P<0.05.

[3] = experiment II, 25 days via drinking water, candesartan 0.9 mg/kg/day, daglutril 101 mg/kg (alone) or 98 mg/kg (combination)
[4] = experiment I, 33 days via drinking water, eprosartan 62 mg/kg/day, daglutril 104 mg/kg/day in combination

| SMILES | Placebo corrected mean change of MPAP (average 0.5-6 hrs) [1] | reduction in blood pressure (in words) ([2]; daglutril given alone) | DBP, change vs. baseline [2, 3] [mmHg] | HR, change vs. baseline [2, 3] [min⁻¹] | SBP, change vs. baseline [2, 3] [mmHg] | DBP, change vs. baseline [2, 4] [mmHg] | HR, change vs. baseline [2, 4] [min⁻¹] | SBP, change vs. baseline [2, 4] [mmHg] |
| --- | --- | --- | --- | --- | --- | --- | --- | --- |
| CCOC(=O)C(CCc1ccccc1)CC1(C(=O)NC2CCc3ccccc3N(CC(=O)O)C2=O)CCCC1 (centres unmarked) [daglutril, 2-[1-(1-carboxymethyl-2-oxo-2,3,4,5-tetrahydro-1H-benzo[b]azepin-3-ylcarbamoyl)-cyclopentylmethyl]-4-phenyl-butyric acid ethyl ester] | −3.35 (1.06) mmHg | did not lead to a reduction in blood pressure | 0.8 | -2.0 | −1.5 | – | – | – |
| CCOc1nc2cccc(C(=O)OC(C)OC(=O)OC3CCCCC3)c2n1Cc1ccc(-c2ccccc2-c2nn[nH]n2)cc1 (centres unmarked) [Candesartan, candesartan cilexetil] | – | – | −19.7 | -3.0 | −22.8 | – | – | – |
| CCCCc1ncc(/C=C(\Cc2cccs2)C(=O)O)n1Cc1ccc(C(=O)O)cc1 [Eprosartan, eprosartan mesylate] | – | – | – | – | – | −5.6 | -7.6 | −5.9 |
